Experimental data published in ChEMBL document CHEMBL1158671, “Microbial transformations of hypolipemic E-guggulsterone” (J Nat Prod, 1998).
Active and inactive are the calls of the source. The rule behind the calls is not given here.

What was measured:
Shigella boydii = assay: Antibacterial activity against Shigella boydii; format: functional, organism-based
Pseudomonas aeruginosa = assay: Antibacterial activity against Pseudomonas aeruginosa; format: functional, organism-based
Escherichia coli = assay: Antibacterial activity against Escherichia coli; format: functional, organism-based
[1] = system: Corynebacterium diphtheriae; assay: Antibacterial activity against Corynebacterium diphtheriae; format: functional, organism-based
NCI-H226 = assay: Cytotoxicity against human NCI-H226 cells; format: functional, cell-based

C/C=C1/C(=O)C[C@H]2[C@@H]3[C@@H](O)CC4=CC(=O)CC[C@]4(C)[C@H]3CC[C@]12C
Activity (Shigella boydii): Active | Activity (Pseudomonas aeruginosa): Active | Activity (Escherichia coli): Active | Activity [1]: Active

C/C=C1/C(=O)C[C@H]2[C@@H]3CCC4=CC(=O)CC[C@]4(C)[C@H]3CC[C@]12C
Activity (NCI-H226): Active | Activity (Shigella boydii): inactive | Activity (Pseudomonas aeruginosa): inactive | Activity (Escherichia coli): inactive | Activity [1]: inactive
